Experiment [1] deals with Moloney murine leukemia virus (MoLV). Put plainly: in vitro XC plaque assay: inhibition of murine leukemia virus plaque growth (mouse SC-1 cells, rat XC cells). In kind it is cell-based. Particulars: SC1, compounds added 2 hours prior to virus, read-out: IC50 (concentration giving a 50% inhibition of virus plaque growth). The method, then:
This assay was performed according to the method of Rowe et al. (Virology, 1970, 42, 1136-39) as previously described by L. Hsu, et al. (J. Virological Methods, 1980, 1, 167-77) and T. L. Bowlin and M. R. Proffitt (J. Interferon Res., 983, 3(1), 19-31). Mouse SC-1 cells (fibroblast) (10^5) were seeded into each well of 6-well cluster plates (Costar #3506) in 4 ml Minimum Essential Medium (MEM) with 10% Fetal Calf Serum (FCS). Following an 18 hour incubation period (37° C.), Moloney murine leukemia virus (MoLV) was applied at a predetermined titer to give optimal (i.e. countable) numbers of virus plaques. Compounds were added 2 hours prior to addition of the virus. Three days later the culture medium was removed, the SC-1 cell monolayers were exposed to UV irradiation (1800 ergs), and rat XC cells (10^6) were seeded into each well in 4 ml MEM. Following an additional 3 day incubation (37° C.), these cells were fixed with ethyl alcohol (95%) and stained with 0.3% crystal violet. Plaques were then counted under low magnification. The antiviral activities of various compounds of this invention are tabulated in Table I in terms of the IC50, i,e, the concentration giving a 50% inhibition of virus plaque growth.

In another experiment the test system is HIVlGB8 strain of HIV-1. Put plainly: anti-HIV activity in JM T-cells pretreated with HIV-1 (syncytial cell count and p24 antigen). In kind it is cell-based. The note with it: after 4 days; for Syncytial count: untreated 29. The method, then:
To further confirm the antiretroviral activity of these compounds, 6-(4-phenylphenoxy)hexan-1-ol was evaluated for activity against HIV. Following overnight pretreatment of T-cells (JM cells) with the HIVlGB8 strain of HIV-1, 6-(4-phenylphenoxy)hexan-1-ol was added to the cell cultures at concentrations of 15 and 7.5 μg/ml. After 4 days the number of synctial cells in the cell culture and the amount of p24 antigen, also a measure of viral replication, were determined.

The test system of experiment [2] is HIV and other retroviruses. The note with it: previously shown; cited from earlier work.

The values below come from US4939173A, “Aryloxy alkanols as anti-retrovirus agents” (Merrell Dow Pharmaceuticals Inc., priority 1988, dated 1990).

In brackets after ≈: the same amount, converted by molar mass.

By inhibition is commonly meant how much of the control response was suppressed.

Take `OCCCCOc1ccc(OCc2ccccc2)cc1` [4-(4-Benzyloxyphenoxy)butan-1-ol, 4-(4-Benzyloxyphenoxy)-butan-1-ol]: the IC50 in experiment [1] lay in the range of 1 to 10 µg/mL (≈ 3.67 to 36.7 µM). With `Cc1cc(C)c(OCCCCCCO)c(C)c1` [6-(2,4,6-Trimethylphenoxy)hexan-1-ol, 6-(2,4,6-trimethylphenoxy)hexan-1-ol], in experiment [1], the IC50 is 5 µg/mL (≈ 21.2 µM).

Take `OCCCCCCOc1ccc2ccccc2c1` [6-(2-Naphthylenyloxy)hexan-1-ol, 6-(2-naphthylenyloxy)hexan-1-ol]: in experiment [1], the IC50 lay within 5 to 10 µg/mL (≈ 20.5 to 40.9 µM). On the same count and under the same terms, the figure for `OCCCCCCOc1ccc(OCc2ccccc2)cc1` [6-(4-Benzyloxyphenoxy)hexan-1-ol] is 1 to 10 µg/mL (≈ 3.33 to 33.3 µM); for `OCCCCCCOc1ccc(Cc2ccccc2)cc1` [6-(4-Benzylphenoxy)hexan-1-ol] it is 1 to 10 µg/mL (≈ 3.52 to 35.2 µM). Consider `O=C(O)CCC(=O)OCCCCCCOc1ccc(-c2ccccc2)cc1` [6-(4-PhenYlphenoxV)-1-hexYl succinate (monoester)], for which, in experiment [1], the IC50 is 1 to 10 µg/mL.

As to `OCCCCCCOc1ccc(-c2ccccc2)cc1` [6-(4-Phenylphenoxy)hexan-1-ol], the IC50 in experiment [1] lay in the range of 2.5 to 5 µg/mL (≈ 9.25 to 18.5 µM). Also, the values for the Syncytial count in the experiment on HIVlGB8 strain of HIV-1 (7.5 μg/ml) and with HIVlGB8 strain of HIV-1 (15 μg/ml) were 8 and 0, respectively. Besides, in the experiment with HIVlGB8 strain of HIV-1 (15 μg/ml, untreated 801), the P24 antigen amounted to 62 pg × 10^3 /ml. Moreover, in the experiment on HIVlGB8 strain of HIV-1 (Human immunodeficiency virus 1, T-cell, 96 h, 7.5 μg/ml, syncytial count vs untreated), the inhibition at 7.5 µg/mL worked out at 72%. The inhibition at 15 µg/mL in the experiment with HIVlGB8 strain of HIV-1 (Human immunodeficiency virus 1, T-cell, 96 h, 15 μg/ml, syncytial count vs untreated) was 100%. For `OCCCCCCOc1ccccc1` [6-Phenoxyhexan-1-ol, 6-phenoxyhexan-1-ol], the IC50 in experiment [1] was determined as 1 µg/mL (≈ 5.15 µM). `O[C@H]1[C@H](O)[C@@H](O)CN2CC[C@H](O)[C@H]12` [castanospermine]: in experiment [2], the “activity against HIV and other retroviruses” value is “activity against HIV and other retroviruses”. With heparin, the “activity against HIV and other retroviruses” value in experiment [2] was “activity against HIV and other retroviruses”.
